{"source": "paper PMC6593727", "about": "(Clinical Pharmacology in Drug Development, 2019)", "key": {"[1]": {"biological_target": "T1, CYP2C8 (Homo sapiens, UniProt P10632)", "T1 sequence (P10632 1-490)": "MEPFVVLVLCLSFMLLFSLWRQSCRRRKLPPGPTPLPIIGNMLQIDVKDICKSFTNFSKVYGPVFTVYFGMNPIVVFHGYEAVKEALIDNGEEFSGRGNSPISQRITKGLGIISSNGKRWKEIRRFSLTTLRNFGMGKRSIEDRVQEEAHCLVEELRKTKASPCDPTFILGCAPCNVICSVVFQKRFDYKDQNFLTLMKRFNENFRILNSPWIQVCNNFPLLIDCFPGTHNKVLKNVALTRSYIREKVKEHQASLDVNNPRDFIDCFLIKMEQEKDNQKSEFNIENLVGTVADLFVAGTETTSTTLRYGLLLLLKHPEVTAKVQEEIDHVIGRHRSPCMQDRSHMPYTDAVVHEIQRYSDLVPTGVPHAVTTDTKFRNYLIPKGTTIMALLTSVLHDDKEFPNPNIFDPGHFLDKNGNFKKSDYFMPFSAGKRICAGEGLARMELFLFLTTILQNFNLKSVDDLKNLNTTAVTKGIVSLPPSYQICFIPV", "assay": "In vitro CYP inhibition studies in human liver microsomes using probe substrates", "type": "biochemical", "settings": "for R value (FDA): R = 1 + (total Cmax/Ki); for R value (EMA): R = unbound Cmax/Ki"}, "[2]": {"biological_target": "T2, CYP2C9 (Homo sapiens, UniProt P11712)", "T2 sequence (P11712 whole entry)": "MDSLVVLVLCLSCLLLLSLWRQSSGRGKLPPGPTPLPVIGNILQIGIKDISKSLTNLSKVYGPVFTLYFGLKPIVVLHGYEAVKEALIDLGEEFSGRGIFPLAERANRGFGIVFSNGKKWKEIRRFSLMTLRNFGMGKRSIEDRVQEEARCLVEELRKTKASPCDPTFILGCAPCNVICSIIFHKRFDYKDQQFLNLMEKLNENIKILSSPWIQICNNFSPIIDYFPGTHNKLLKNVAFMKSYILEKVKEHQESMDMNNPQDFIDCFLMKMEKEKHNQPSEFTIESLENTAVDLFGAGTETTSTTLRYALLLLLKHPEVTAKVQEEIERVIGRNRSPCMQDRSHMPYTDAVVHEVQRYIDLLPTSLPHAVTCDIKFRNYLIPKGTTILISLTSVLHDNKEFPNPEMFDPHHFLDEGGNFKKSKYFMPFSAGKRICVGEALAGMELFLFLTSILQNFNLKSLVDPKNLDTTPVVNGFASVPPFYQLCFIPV", "assay": "In vitro CYP inhibition studies in human liver microsomes using probe substrates", "type": "biochemical", "settings": "for R value (FDA): R = 1 + (total Cmax/Ki); for R value (EMA): R = unbound Cmax/Ki"}, "[3]": {"biological_target": "T3, CYP2C19 (Homo sapiens, UniProt P33261)", "T3 sequence (P33261 whole entry)": "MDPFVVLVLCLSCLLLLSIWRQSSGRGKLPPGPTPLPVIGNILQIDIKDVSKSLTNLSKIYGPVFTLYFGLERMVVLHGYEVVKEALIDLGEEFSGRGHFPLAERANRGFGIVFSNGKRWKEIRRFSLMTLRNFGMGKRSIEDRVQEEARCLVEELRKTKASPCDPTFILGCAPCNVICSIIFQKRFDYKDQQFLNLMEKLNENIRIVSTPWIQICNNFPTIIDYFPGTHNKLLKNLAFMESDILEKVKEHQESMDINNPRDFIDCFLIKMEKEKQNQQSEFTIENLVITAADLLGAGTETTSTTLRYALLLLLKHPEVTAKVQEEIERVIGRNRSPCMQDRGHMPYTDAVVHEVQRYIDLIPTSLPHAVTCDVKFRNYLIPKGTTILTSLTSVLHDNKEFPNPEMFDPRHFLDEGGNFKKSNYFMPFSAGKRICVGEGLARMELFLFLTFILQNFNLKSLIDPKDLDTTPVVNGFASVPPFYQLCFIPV", "assay": "In vitro CYP inhibition studies in human liver microsomes using probe substrates", "type": "biochemical", "settings": "for R value (FDA): R = 1 + (total Cmax/Ki); for R value (EMA): R = unbound Cmax/Ki"}, "[4]": {"biological_target": "T4, CYP2D6 (Homo sapiens, UniProt P10635)", "T4 sequence (P10635 whole entry)": "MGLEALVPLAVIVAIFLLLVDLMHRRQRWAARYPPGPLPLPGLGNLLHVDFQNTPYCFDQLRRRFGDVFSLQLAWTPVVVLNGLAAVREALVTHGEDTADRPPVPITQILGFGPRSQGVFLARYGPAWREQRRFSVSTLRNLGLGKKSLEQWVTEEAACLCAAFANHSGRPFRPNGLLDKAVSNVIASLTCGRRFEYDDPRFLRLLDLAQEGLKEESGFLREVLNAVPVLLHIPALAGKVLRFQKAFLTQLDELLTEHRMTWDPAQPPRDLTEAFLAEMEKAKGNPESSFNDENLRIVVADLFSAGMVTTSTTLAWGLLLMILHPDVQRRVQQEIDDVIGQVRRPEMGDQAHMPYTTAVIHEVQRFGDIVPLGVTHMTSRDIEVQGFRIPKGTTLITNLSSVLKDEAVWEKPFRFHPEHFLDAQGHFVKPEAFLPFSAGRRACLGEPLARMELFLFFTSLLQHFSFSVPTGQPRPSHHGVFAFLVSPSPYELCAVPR", "assay": "In vitro CYP inhibition studies in human liver microsomes using probe substrates", "type": "biochemical", "settings": "for R value (FDA): R = 1 + (total Cmax/Ki); for R value (EMA): R = unbound Cmax/Ki"}, "[5]": {"biological_target": "T5, CYP3A4 (Homo sapiens, UniProt P08684)", "T5 sequence (P08684 whole entry)": "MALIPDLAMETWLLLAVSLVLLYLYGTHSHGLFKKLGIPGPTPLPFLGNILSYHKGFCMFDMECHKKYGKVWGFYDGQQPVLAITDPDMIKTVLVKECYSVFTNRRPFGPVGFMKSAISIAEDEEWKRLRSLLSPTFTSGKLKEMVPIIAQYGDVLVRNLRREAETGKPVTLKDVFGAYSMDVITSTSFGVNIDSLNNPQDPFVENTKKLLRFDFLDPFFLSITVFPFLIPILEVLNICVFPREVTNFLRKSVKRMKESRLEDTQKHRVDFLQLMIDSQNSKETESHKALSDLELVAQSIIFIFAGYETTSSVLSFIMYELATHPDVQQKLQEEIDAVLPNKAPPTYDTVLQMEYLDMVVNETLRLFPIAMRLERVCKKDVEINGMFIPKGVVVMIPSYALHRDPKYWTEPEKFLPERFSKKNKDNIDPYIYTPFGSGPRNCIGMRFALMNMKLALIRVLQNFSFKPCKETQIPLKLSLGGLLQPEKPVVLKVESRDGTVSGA", "assay": "In vitro CYP inhibition studies in human liver microsomes using probe substrates", "type": "biochemical", "settings": "for R value (FDA): R = 1 + (total Cmax/Ki); for R value (EMA): R = unbound Cmax/Ki"}, "[6]": {"assay": "ASP8477 steady‐state plasma PK in the cocktail study", "type": "in vivo, human", "settings": "for Ctrough: mean ± SD"}, "[7]": {"tested_on": "healthy female subjects", "assay": "Safety and tolerability: adverse events", "type": "in vivo, human"}, "[8]": {"assay": "Fraction of unbound ASP8477 in humans", "type": "in vitro ADME, human", "settings": "independent of the clinical concentration range"}, "[9]": {"tested_on": "CYP enzymes", "assay": "Induction of CYP enzymes in vitro", "type": "in vitro ADME"}, "[10]": {"settings": "ref clinical studies, cited from earlier work"}, "[11]": {"biological_target": "T2, CYP2C9", "assay": "Inje cocktail DDI study: losartan and EXP‐3174 PK, assessment of CYP2C9 activity"}, "[12]": {"biological_target": "T5, CYP3A4"}, "[13]": {"biological_target": "T3, CYP2C19"}, "[14]": {"biological_target": "T4, CYP2D6"}, "[15]": {"settings": "female, human, plasma, oral, 20 mg"}, "[16]": {"settings": "female, human, plasma, oral, 60 mg"}, "[17]": {"settings": "female, human, plasma, oral, 100 mg"}}, "note": "Read-outs that look alike come from different tables or passages of the source."}
{"smiles": "O=C(Nc1ccccc1)C1CCN(C(=O)Oc2cccnc2)CC1", "note": "[ASP8477, 3‐pyridyl 4‐(phenylcarbamoyl)piperidine‐1‐carboxylate]", "values": [{"measurement": "Ki", "setting": "[1]", "result": 15, "unit": "µM"}, {"measurement": "R value (FDA)", "setting": "[1]; ASP8477 20 mg QD", "result": 1.074}, {"measurement": "R value (EMA)", "setting": "[1]; ASP8477 20 mg QD", "result": 0.011}, {"measurement": "R value (FDA)", "setting": "[1]; ASP8477 60 mg QD", "result": 1.385}, {"measurement": "R value (EMA)", "setting": "[1]; ASP8477 60 mg QD", "result": 0.06}, {"measurement": "Ki", "setting": "[2]", "result": 8, "unit": "µM"}, {"measurement": "R value (FDA)", "setting": "[2]; ASP8477 20 mg QD", "result": 1.140}, {"measurement": "R value (EMA)", "setting": "[2]; ASP8477 20 mg QD", "result": 0.021}, {"measurement": "R value (FDA)", "setting": "[2]; ASP8477 60 mg QD", "result": 1.723}, {"measurement": "R value (EMA)", "setting": "[2]; ASP8477 60 mg QD", "result": 0.11}, {"measurement": "Ki", "setting": "[3]", "result": 1, "unit": "µM"}, {"measurement": "R value (FDA)", "setting": "[3]; ASP8477 20 mg QD", "result": 2.116}, {"measurement": "R value (EMA)", "setting": "[3]; ASP8477 20 mg QD", "result": 0.167}, {"measurement": "R value (FDA)", "setting": "[3]; ASP8477 60 mg QD", "result": 6.781}, {"measurement": "R value (EMA)", "setting": "[3]; ASP8477 60 mg QD", "result": 0.87}, {"measurement": "Ki", "setting": "[4]", "result": 9.8, "unit": "µM"}, {"measurement": "R value (FDA)", "setting": "[4]; ASP8477 20 mg QD", "result": 1.114}, {"measurement": "R value (EMA)", "setting": "[4]; ASP8477 20 mg QD", "result": 0.017}, {"measurement": "R value (FDA)", "setting": "[4]; ASP8477 60 mg QD", "result": 1.590}, {"measurement": "R value (EMA)", "setting": "[4]; ASP8477 60 mg QD", "result": 0.09}, {"measurement": "Ki", "setting": "[5]", "result": 18, "unit": "µM"}, {"measurement": "R value (FDA)", "setting": "[5]; ASP8477 20 mg QD", "result": 1.062}, {"measurement": "R value (EMA)", "setting": "[5]; ASP8477 20 mg QD", "result": 0.009}, {"measurement": "R value (FDA)", "setting": "[5]; ASP8477 60 mg QD", "result": 1.321}, {"measurement": "R value (EMA)", "setting": "[5]; ASP8477 60 mg QD", "result": 0.05}, {"measurement": "dose proportionality of Cmax and AUCtau", "setting": "[6]; 20, 60, 100 mg once daily", "result": "more than dose‐proportional"}, {"measurement": "Ctrough", "setting": "[6]; Day 14, 60 mg ASP8477 qd", "result": "0.091 ± 0.11", "unit": "µg/mL"}, {"measurement": "Ctrough", "setting": "[6]; Day 23, 100 mg ASP8477 qd", "result": "0.74 ± 0.64", "unit": "µg/mL"}, {"measurement": "AUC", "setting": "[6]; [15]", "result": "1.6 ± 0.71", "unit": "µg·h/mL"}, {"measurement": "Cmax", "setting": "[6]; [15]", "result": "0.4 ± 0.12", "unit": "µg/mL"}, {"measurement": "Tmax", "setting": "[6]; [15]", "result": 1, "unit": "h"}, {"measurement": "Cmax", "setting": "[6]; [16]", "result": "2 ± 0.49", "unit": "µg/mL"}, {"measurement": "Tmax", "setting": "[6]; [16]", "result": 2, "unit": "h"}, {"measurement": "Cmax", "setting": "[6]; [17]", "result": "4.2 ± 1.2", "unit": "µg/mL"}, {"measurement": "Tmax", "setting": "[6]; [17]", "result": 2, "unit": "h"}, {"measurement": "tolerability", "setting": "[7]; ASP8477 in conjunction with cocktail probes, healthy female subjects", "result": "generally well tolerated"}, {"measurement": "fatigue of moderate intensity (most frequent moderate AE)", "setting": "[7]; all dose levels", "result": 5, "unit": "subjects"}, {"measurement": "discontinuation due to an AE (emotional lability, moderate)", "setting": "[7]; day 15, at the 60 mg level", "result": 1, "unit": "subject"}, {"measurement": "AEs considered possibly or probably related to study drug", "setting": "[7]; following 20 mg ASP8477", "result": 11, "unit": "subjects"}, {"measurement": "AEs considered possibly or probably related to study drug", "setting": "[7]; following 60 mg ASP8477", "result": 11, "unit": "subjects"}, {"measurement": "AEs considered possibly or probably related to study drug", "setting": "[7]; following 100 mg ASP8477", "result": 13, "unit": "subjects"}, {"measurement": "serious AEs or deaths", "setting": "[7]; whole study", "result": "No serious AEs or deaths"}, {"measurement": "fraction of unbound ASP8477", "setting": "[8]", "result": 15, "unit": "%"}, {"measurement": "effect on the induction of CYP enzymes", "setting": "[9]", "result": "No clinically relevant effect"}, {"measurement": "steady state achieved (mean trough concentration‐time profiles)", "setting": "[10]; 20 mg once daily", "result": 1, "unit": "days"}, {"measurement": "steady state achieved (mean trough concentration‐time profiles)", "setting": "[10]; 60 mg once daily", "result": 3, "unit": "days"}, {"measurement": "steady state achieved (mean trough concentration‐time profiles)", "setting": "[10]; 100 mg once daily", "result": 10, "unit": "days"}, {"measurement": "dose excreted in urine as unchanged drug", "setting": "[10]", "result": "Approximately 1%"}, {"measurement": "in vivo CYP inhibition class (FDA guidance, AUC of probe substrate)", "setting": "[11]; 20 mg dose level", "result": "no effect"}, {"measurement": "in vivo CYP inhibition class (FDA guidance, AUC of probe substrate)", "setting": "[11]; 60 mg dose level", "result": "weak (1.25‐ to <2‐fold)"}, {"measurement": "in vivo CYP inhibition class (FDA guidance, AUC of probe substrate)", "setting": "[11]; 100 mg dose level", "result": "weak (1.25‐ to <2‐fold)"}, {"measurement": "overall in vivo inhibitor class", "setting": "[11]; doses from 20 to 100 mg", "result": "weak (1.25‐ to <2‐fold)"}, {"measurement": "in vivo CYP inhibition class (FDA guidance, AUC of probe substrate)", "setting": "[12]; 60 mg dose level", "result": "weak (1.25‐ to <2‐fold)"}, {"measurement": "in vivo CYP inhibition class (FDA guidance, AUC of probe substrate)", "setting": "[12]; 100 mg dose level", "result": "weak (1.25‐ to <2‐fold)"}, {"measurement": "overall in vivo inhibitor class", "setting": "[12]; doses from 20 to 100 mg", "result": "weak (1.25‐ to <2‐fold)"}, {"measurement": "in vivo CYP inhibition class (FDA guidance, AUC of probe substrate)", "setting": "[13]; 20 mg dose level", "result": "moderate (2‐ to <5‐fold)"}, {"measurement": "in vivo CYP inhibition class (FDA guidance, AUC of probe substrate)", "setting": "[13]; 60 mg dose level", "result": "moderate (2‐ to <5‐fold)"}, {"measurement": "in vivo CYP inhibition class (FDA guidance, AUC of probe substrate)", "setting": "[13]; 100 mg dose level", "result": "strong (≥5‐fold)"}, {"measurement": "overall in vivo inhibitor class", "setting": "[13]; doses from 20 to 100 mg", "result": "moderate to strong"}, {"measurement": "in vivo CYP inhibition class (FDA guidance, AUC of probe substrate)", "setting": "[14]; 20 mg dose level", "result": "weak (1.25‐ to <2‐fold)"}, {"measurement": "in vivo CYP inhibition class (FDA guidance, AUC of probe substrate)", "setting": "[14]; 60 mg dose level", "result": "moderate (2‐ to <5‐fold)"}, {"measurement": "in vivo CYP inhibition class (FDA guidance, AUC of probe substrate)", "setting": "[14]; 100 mg dose level", "result": "strong (≥5‐fold)"}, {"measurement": "overall in vivo inhibitor class", "setting": "[14]; doses from 20 to 100 mg", "result": "weak to strong"}]}
